Results: patent publication US20250255867A1 (Kadmon Corporation, LLC, priority 2022, published 2025)

CC(C)NC(=O)COc1cccc(-c2nc(Nc3ccc4[nH]ncc4c3)c3ccccc3n2)c1 [Belumosudil, 2-{3-[4-(1H-indazol-5-ylamino)-2-quinazolinyl]phenoxy}-N-(propan-2-yl) acetamide]
Patients with relative dose intensity >95% (Cohort 1): 77% | Abdominal distension: # Events (Cohort 1 200 mg QD): 1 | Abdominal distension: Affected/At Risk (Cohort 1 200 mg QD): 1/17 | Abdominal distension: Affected/At Risk (%) (Cohort 1 200 mg QD): (5.88%) | Abdominal pain upper: # Events (Cohort 1 200 mg QD): 1 | Abdominal pain upper: Affected/At Risk (Cohort 1 200 mg QD): 1/17 | Abdominal pain upper: Affected/At Risk (%) (Cohort 1 200 mg QD): (5.88%) | Abdominal pain: # Events (Cohort 1 200 mg QD): 2 | Abdominal pain: Affected/At Risk (Cohort 1 200 mg QD): 2/17 | Abdominal pain: Affected/At Risk (%) (Cohort 1 200 mg QD): (11.76%) | Actinic keratosis: # Events (Cohort 1 200 mg QD): 0 | Actinic keratosis: Affected/At Risk (Cohort 1 200 mg QD): 0/17 | Actinic keratosis: Affected/At Risk (%) (Cohort 1 200 mg QD): (0%) | Acute kidney injury: # Events (Cohort 1 200 mg QD): 4 | Acute kidney injury: Affected/At Risk (Cohort 1 200 mg QD): 1/17 | Acute kidney injury: Affected/At Risk (%) (Cohort 1 200 mg QD): (5.88%) | Acute respiratory distress syndrome: # Events (Cohort 1 200 mg QD): 1 | Acute respiratory distress syndrome: Affected/At Risk (Cohort 1 200 mg QD): 1/17 | Acute respiratory distress syndrome: Affected/At Risk (%) (Cohort 1 200 mg QD): (5.88%) | Adrenal insufficiency: # Events (Cohort 1 200 mg QD): 2 | Adrenal insufficiency: Affected/At Risk (Cohort 1 200 mg QD): 1/17 | Adrenal insufficiency: Affected/At Risk (%) (Cohort 1 200 mg QD): (5.88%) | Alanine aminotransferase increased: # Events (Cohort 1 200 mg QD): 12 | Alanine aminotransferase increased: Affected/At Risk (Cohort 1 200 mg QD): 6/17 | Alanine aminotransferase increased: Affected/At Risk (%) (Cohort 1 200 mg QD): (35.29%) | Anaemia: # Events (Cohort 1 200 mg QD): 14 | Anaemia: Affected/At Risk (Cohort 1 200 mg QD): 5/17 | Anaemia: Affected/At Risk (%) (Cohort 1 200 mg QD): (29.41%) | Anal incontinence: # Events (Cohort 1 200 mg QD): 2 | Anal incontinence: Affected/At Risk (Cohort 1 200 mg QD): 1/17 | Anal incontinence: Affected/At Risk (%) (Cohort 1 200 mg QD): (5.88%) | Anxiety: # Events (Cohort 1 200 mg QD): 1 | Anxiety: Affected/At Risk (Cohort 1 200 mg QD): 1/17 | Anxiety: Affected/At Risk (%) (Cohort 1 200 mg QD): (5.88%) | Arthralgia: # Events (Cohort 1 200 mg QD): 1 | Arthralgia: Affected/At Risk (Cohort 1 200 mg QD): 1/17 | Arthralgia: Affected/At Risk (%) (Cohort 1 200 mg QD): (5.88%) | Aspartate aminotransferase increased: # Events (Cohort 1 200 mg QD): 8 | Aspartate aminotransferase increased: Affected/At Risk (Cohort 1 200 mg QD): 5/17 | Aspartate aminotransferase increased: Affected/At Risk (%) (Cohort 1 200 mg QD): (29.41%) | Asthenia: # Events (Cohort 1 200 mg QD): 0 | Asthenia: Affected/At Risk (Cohort 1 200 mg QD): 0/17 | Asthenia: Affected/At Risk (%) (Cohort 1 200 mg QD): (0%) | Atelectasis: # Events (Cohort 1 200 mg QD): 1 | Atelectasis: Affected/At Risk (Cohort 1 200 mg QD): 1/17 | Atelectasis: Affected/At Risk (%) (Cohort 1 200 mg QD): (5.88%) | Back pain: # Events (Cohort 1 200 mg QD): 0 | Back pain: Affected/At Risk (Cohort 1 200 mg QD): 0/17 | Back pain: Affected/At Risk (%) (Cohort 1 200 mg QD): (0%) | Balance disorder: # Events (Cohort 1 200 mg QD): 0 | Balance disorder: Affected/At Risk (Cohort 1 200 mg QD): 0/17 | Balance disorder: Affected/At Risk (%) (Cohort 1 200 mg QD): (0%) | Basal cell carcinoma: # Events (Cohort 1 200 mg QD): 0 | Basal cell carcinoma: Affected/At Risk (Cohort 1 200 mg QD): 0/17 | Basal cell carcinoma: Affected/At Risk (%) (Cohort 1 200 mg QD): (0%) | Benign prostatic hyperplasia: # Events (Cohort 1 200 mg QD): 1 | Benign prostatic hyperplasia: Affected/At Risk (Cohort 1 200 mg QD): 1/17 | Benign prostatic hyperplasia: Affected/At Risk (%) (Cohort 1 200 mg QD): (5.88%) | Blepharitis: # Events (Cohort 1 200 mg QD): 1 | Blepharitis: Affected/At Risk (Cohort 1 200 mg QD): 1/17 | Blepharitis: Affected/At Risk (%) (Cohort 1 200 mg QD): (5.88%) | Blister: # Events (Cohort 1 200 mg QD): 0 | Blister: Affected/At Risk (Cohort 1 200 mg QD): 0/17 | Blister: Affected/At Risk (%) (Cohort 1 200 mg QD): (0%) | Blood alkaline phosphatase increased: # Events (Cohort 1 200 mg QD): 6 | Blood alkaline phosphatase increased: Affected/At Risk (Cohort 1 200 mg QD): 4/17 | Blood alkaline phosphatase increased: Affected/At Risk (%) (Cohort 1 200 mg QD): (23.53%) | Blood chloride decreased: # Events (Cohort 1 200 mg QD): 0 | Blood chloride decreased: Affected/At Risk (Cohort 1 200 mg QD): 0/17 | Blood chloride decreased: Affected/At Risk (%) (Cohort 1 200 mg QD): (0%) | Blood cholesterol increased: # Events (Cohort 1 200 mg QD): 2 | Blood cholesterol increased: Affected/At Risk (Cohort 1 200 mg QD): 1/17 | Blood cholesterol increased: Affected/At Risk (%) (Cohort 1 200 mg QD): (5.88%) | Blood creatine increased: # Events (Cohort 1 200 mg QD): 0 | Blood creatine increased: Affected/At Risk (Cohort 1 200 mg QD): 0/17 | Blood creatine increased: Affected/At Risk (%) (Cohort 1 200 mg QD): (0%) | Blood creatine phosphokinase increased: # Events (Cohort 1 200 mg QD): 1 | Blood creatine phosphokinase increased: Affected/At Risk (Cohort 1 200 mg QD): 1/17 | Blood creatine phosphokinase increased: Affected/At Risk (%) (Cohort 1 200 mg QD): (5.88%) | Blood creatinine increased: # Events (Cohort 1 200 mg QD): 1 | Blood creatinine increased: Affected/At Risk (Cohort 1 200 mg QD): 1/17 | Blood creatinine increased: Affected/At Risk (%) (Cohort 1 200 mg QD): (5.88%) | Blood loss anaemia: # Events (Cohort 1 200 mg QD): 1 | Blood loss anaemia: Affected/At Risk (Cohort 1 200 mg QD): 1/17 | Blood loss anaemia: Affected/At Risk (%) (Cohort 1 200 mg QD): (5.88%) | Bronchial secretion retention: # Events (Cohort 1 200 mg QD): 0 | Bronchial secretion retention: Affected/At Risk (Cohort 1 200 mg QD): 0/17 | Bronchial secretion retention: Affected/At Risk (%) (Cohort 1 200 mg QD): (0%) | Bronchitis: # Events (Cohort 1 200 mg QD): 1 | Bronchitis: Affected/At Risk (Cohort 1 200 mg QD): 1/17 | Bronchitis: Affected/At Risk (%) (Cohort 1 200 mg QD): (5.88%) | Bronchoscopy: # Events (Cohort 1 200 mg QD): 1 | Bronchoscopy: Affected/At Risk (Cohort 1 200 mg QD): 1/17 | Bronchoscopy: Affected/At Risk (%) (Cohort 1 200 mg QD): (5.88%) | Catheter site haemorrhage: # Events (Cohort 1 200 mg QD): 1 | Catheter site haemorrhage: Affected/At Risk (Cohort 1 200 mg QD): 1/17 | Catheter site haemorrhage: Affected/At Risk (%) (Cohort 1 200 mg QD): (5.88%) | Chills: # Events (Cohort 1 200 mg QD): 1 | Chills: Affected/At Risk (Cohort 1 200 mg QD): 1/17 | Chills: Affected/At Risk (%) (Cohort 1 200 mg QD): (5.88%) | Chronic kidney disease: # Events (Cohort 1 200 mg QD): 1 | Chronic kidney disease: Affected/At Risk (Cohort 1 200 mg QD): 1/17 | Chronic kidney disease: Affected/At Risk (%) (Cohort 1 200 mg QD): (5.88%) | Conjunctival haemorrhage: # Events (Cohort 1 200 mg QD): 0 | Conjunctival haemorrhage: Affected/At Risk (Cohort 1 200 mg QD): 0/17 | Conjunctival haemorrhage: Affected/At Risk (%) (Cohort 1 200 mg QD): (0%) | Conjunctivitis: # Events (Cohort 1 200 mg QD): 0 | Conjunctivitis: Affected/At Risk (Cohort 1 200 mg QD): 0/17 | Conjunctivitis: Affected/At Risk (%) (Cohort 1 200 mg QD): (0%) | Constipation: # Events (Cohort 1 200 mg QD): 1 | Constipation: Affected/At Risk (Cohort 1 200 mg QD): 1/17 | Constipation: Affected/At Risk (%) (Cohort 1 200 mg QD): (5.88%) | Contrast media allergy: # Events (Cohort 1 200 mg QD): 0 | Contrast media allergy: Affected/At Risk (Cohort 1 200 mg QD): 0/17 | Contrast media allergy: Affected/At Risk (%) (Cohort 1 200 mg QD): (0%) | Contusion: # Events (Cohort 1 200 mg QD): 2 | Contusion: Affected/At Risk (Cohort 1 200 mg QD): 2/17 | Contusion: Affected/At Risk (%) (Cohort 1 200 mg QD): (11.76%) | Corneal abrasion: # Events (Cohort 1 200 mg QD): 1 | Corneal abrasion: Affected/At Risk (Cohort 1 200 mg QD): 1/17 | Corneal abrasion: Affected/At Risk (%) (Cohort 1 200 mg QD): (5.88%) | Corneal infection: # Events (Cohort 1 200 mg QD): 0 | Corneal infection: Affected/At Risk (Cohort 1 200 mg QD): 0/17 | Corneal infection: Affected/At Risk (%) (Cohort 1 200 mg QD): (0%) | Cough: # Events (Cohort 1 200 mg QD): 1 | Cough: Affected/At Risk (Cohort 1 200 mg QD): 1/17 | Cough: Affected/At Risk (%) (Cohort 1 200 mg QD): (5.88%) | Decreased appetite: # Events (Cohort 1 200 mg QD): 4 | Decreased appetite: Affected/At Risk (Cohort 1 200 mg QD): 2/17 | Decreased appetite: Affected/At Risk (%) (Cohort 1 200 mg QD): (11.76%) | Dehydration: # Events (Cohort 1 200 mg QD): 2 | Dehydration: Affected/At Risk (Cohort 1 200 mg QD): 2/17 | Dehydration: Affected/At Risk (%) (Cohort 1 200 mg QD): (11.76%) | Depression: # Events (Cohort 1 200 mg QD): 0 | Depression: Affected/At Risk (Cohort 1 200 mg QD): 0/17 | Depression: Affected/At Risk (%) (Cohort 1 200 mg QD): (0%) | Diarrhoea: # Events (Cohort 1 200 mg QD): 9
